{"source": "patent US6706509B2", "about": "“Oncoprotein protein kinase” (The Regents of the University of California, priority 1993, dated 2004)", "format_in_all_cases": "cell-based, human", "key": {"c-fos": {"tested_on": "c-fos", "assay": "Northern blot of c-fos expression in Jurkat cells", "method": "(§1) Exponentially growing Jurkat cells (10^6/ml) grown in complete RPMI medium was pretreated with CsA for 15 minutes when applicable, then subjected to various treatments for another 40 minutes. Total cytoplasmic RNA was extracted as previously described (Angel, et al., Cell, 49:729-739, 1987). 10 μg RNA was denatured by incubating with glyoxal for 60 minutes at 55° C. and fractionated on a 1% agarose gel in phosphate buffer. The fractionated RNA was blotted to Zetabind Nylon membrane (CUNO Labs) and hybridized to ^32P-labelled cDNA probes specific for c-jun, jun-B, jun-D, c-fos, α-tubulin and IL-2.\n(§2) During the first stage of T lymphocyte activation, early response genes are rapidly included (Crabtree, Science, 243:355,361, 1989; Zipfel, et al., Mol Cell Bio., 9:1041-1048, 1989). […] After fractionation of 10 μg samples on an agarose gel and transfer to nylon membrane, the level of c-jun, jun-B, jun-D, c-fos and α-tubulin expression was determined by hybridization to random primed cDNA probes.\n(§3) Second, Jurkat cells were incubated with 10 μg/ml soluble anti-CD3 (OKT3), 2 μg/ml soluble anti-CD28 (9.3) or a combination of 50 ng/ml TPA and 1 μg/ml A23817 (T/A) as indicated for 40 minutes. Total cytoplasmic RNA was isolated and 10 μg samples were analyzed as described above using c-jun, jun-D and c-fos probes. […]"}, "c-jun": {"tested_on": "c-jun", "assay": "Northern blot of c-jun expression in Jurkat cells", "method": "as §1, §2, §3"}, "jun-D": {"tested_on": "jun-D", "assay": "Northern blot of jun-D expression in Jurkat cells", "settings": "CsA 100 ng/ml, 40 minutes", "method": "as §1\nas §2, with “1989). Induction of jun and fos genes during activation of the Jurkat T cell line was investigated.” for “1989).”"}, "[1]": {"tested_on": "N-terminal c-Jun kinase (JNK)", "assay": "Solid-phase kinase assay of N-terminal c-Jun kinase activity in HeLa cell extracts", "settings": "HeLa S3 cells, TPA 100 ng/ml", "method": "(§4) Cell extracts were diluted so that the final composition of the WCE buffer was 20 mM HEPES pH 7.7, 75 mM NaCl, 2.5 mM MgCl2, 0.1 mM EDTA, 0.05% Triton X-100, 0.5 mM DTT, 20 mM β-glycerolphosphate, 0.1 mM Na3VO4, 2 μg/ml leupeptin, 100 μg/ml PMSF. The extracts were mixed with 10 μl of GSH-agarose suspension (Sigma) to which 10 μg of either GST or GST-Jun fusion proteins were bound. The mixture was rotated at 4° C. for 3 hours in a microfuge tube and pelleted by centrifugation at 10,000×g for 20 sec. After 4×1 ml washes in HEPES binding buffer (20 mM HEPES pH 7.7, 50 mM NaCl, 2.5 mM MgCl2, 0.1 mM EDTA, 0.05% Triton X-100), the pelleted beads were resuspended in 30 μl of kinase buffer (20 mM HEPES pH 7.6, 20 mM MgCl2, 20 mM β-glycerolphosphate, […] p-nitrophenyl phosphate, 0.1 mM Na3VO4, 2 mM DTT) containing 20 μM ATP and 5 μCi γ-^32P-ATP. After 20 minutes at 30° C. the reaction was terminated by washing with HEPES binding buffer. Phosphorylated proteins were eluted with 30 μl of 1.5×Laemlli sample buffer and resolved on a 10% SDS polyacrylamide gel, followed by autoradiography. Quantitation of phosphate incorporated was determined by gel slicing and scintillation counting. Phosphorylated GST fusion proteins were eluted from gel slices and subjected to phosphopeptide mapping as described (Boyle, et al., supra, 1991). […]"}, "[2]": {"tested_on": "N-terminal c-Jun kinase (JNK)", "assay": "Solid-phase kinase assay of N-terminal c-Jun kinase activity in Jurkat cell extracts", "settings": "Jurkat cells, TPA 50 ng/ml, after 30 minutes", "method": "as §4"}}, "data": [{"compound": "anti-CD3: anti-CD3 monoclonal antibody OKT3", "values": [{"measurement": "c-fos expression, agent alone", "setting": "c-fos; soluble anti-CD3, 40 minutes", "value": "induction"}, {"measurement": "c-jun expression, agent alone", "setting": "c-jun; soluble anti-CD3, 40 minutes", "value": "induction"}]}, {"compound": "cyclosporin A [CsA]", "values": [{"measurement": "effect on maximal induction of c-fos by TPA+A23187", "setting": "c-fos; CsA 100 ng/ml, 40 minutes", "value": "not inhibited"}, {"measurement": "effect on potentiation of jun-D expression by TPA+A23187", "setting": "jun-D", "value": "not inhibited"}, {"measurement": "effect on synergistic induction of c-jun by both costimulatory paradigms", "setting": "c-jun; CsA 100 ng/ml with TPA+A23187 or anti-CD3+anti-CD28, 40 minutes", "value": "partially inhibited"}]}, {"compound": "CCCCCCCCCCCCCC(=O)O[C@@H]1[C@@H](C)[C@@]2(O)[C@@H](C=C(CO)C[C@]3(O)C(=O)C(C)=C[C@@H]23)[C@H]2C(C)(C)[C@]12OC(C)=O", "note": "[TPA]", "values": [{"measurement": "N-terminal c-Jun kinase activity, effect of treatment", "setting": "[1]", "value": "minor compared to that of UV"}, {"measurement": "N-terminal kinase activity, activation", "setting": "[2]", "value": 25, "unit": "fold"}]}]}
